pEC50: −log10 of the molar value.

The assay is filed under the species Rattus norvegicus. As to the kind of experiment: In vitro dose required for stimulation of GH release from rat pituitary cells. The assay is classed as functional. The following applies: Pituitary gland cell, read-out: ED50 (the source's name).
Consider `CC(C)(N)CC(=O)N[C@@H]1CCc2ccccc2N(Cc2ccc(-c3ccccc3-c3nn[nH]n3)cc2)C1=O`, for which the pEC50 was 7.22.
In the case of `CC(C)(N)CC(=O)NC1CCc2ccccc2N(Cc2ccc(-c3ccccc3-c3nn[nH]n3)cc2)C1=O` [L-158432], the pEC50 is 6.80.
Take `CC(C)(N)CC(=O)NC1Cc2ccccc2N(Cc2ccc(-c3ccccc3-c3nn[nH]n3)cc2)C1=O` (stereo not given): the pEC50 is 5.70.
For `CC(C)(N)CC(=O)NC1CCCc2ccccc2N(Cc2ccc(-c3ccccc3-c3nn[nH]n3)cc2)C1=O` (stereo not given), the pEC50 is 5.10.
For `CC(C)(N)CC(=O)NC1CCc2ccccc2N(Cc2ccc(-c3ccccc3C(=O)O)cc2)C1=O` (stereo not given) the value was 5.49.

The record behind these values is ChEMBL document CHEMBL1127685, “A novel 3-substituted benzazepinone growth hormone secretagogue (L-692,429)” (1994).
